Where two headings read alike, the source gives them in different places.
Tests used:
MLL3 = MLL3 (Homo sapiens, UniProt Q8NEZ4); assay: human MTase selectivity panel; format: biochemical
PRMT8 = PRMT8 (Homo sapiens, UniProt Q9NR22); assay: human MTase selectivity panel; format: biochemical
SUV420H2 = SUV420H2 (Homo sapiens, UniProt Q86Y97); assay: human MTase selectivity panel; format: biochemical
SARS-CoV-2 = format: cell-based; details: Calu-3 cells, lung epithelial SARS-CoV-2 infection model
PRMT9 = target: T1, PRMT9 (Homo sapiens, UniProt Q6P2P2); assay: human MTase selectivity panel; format: biochemical
T1 sequence (Q6P2P2 1-845): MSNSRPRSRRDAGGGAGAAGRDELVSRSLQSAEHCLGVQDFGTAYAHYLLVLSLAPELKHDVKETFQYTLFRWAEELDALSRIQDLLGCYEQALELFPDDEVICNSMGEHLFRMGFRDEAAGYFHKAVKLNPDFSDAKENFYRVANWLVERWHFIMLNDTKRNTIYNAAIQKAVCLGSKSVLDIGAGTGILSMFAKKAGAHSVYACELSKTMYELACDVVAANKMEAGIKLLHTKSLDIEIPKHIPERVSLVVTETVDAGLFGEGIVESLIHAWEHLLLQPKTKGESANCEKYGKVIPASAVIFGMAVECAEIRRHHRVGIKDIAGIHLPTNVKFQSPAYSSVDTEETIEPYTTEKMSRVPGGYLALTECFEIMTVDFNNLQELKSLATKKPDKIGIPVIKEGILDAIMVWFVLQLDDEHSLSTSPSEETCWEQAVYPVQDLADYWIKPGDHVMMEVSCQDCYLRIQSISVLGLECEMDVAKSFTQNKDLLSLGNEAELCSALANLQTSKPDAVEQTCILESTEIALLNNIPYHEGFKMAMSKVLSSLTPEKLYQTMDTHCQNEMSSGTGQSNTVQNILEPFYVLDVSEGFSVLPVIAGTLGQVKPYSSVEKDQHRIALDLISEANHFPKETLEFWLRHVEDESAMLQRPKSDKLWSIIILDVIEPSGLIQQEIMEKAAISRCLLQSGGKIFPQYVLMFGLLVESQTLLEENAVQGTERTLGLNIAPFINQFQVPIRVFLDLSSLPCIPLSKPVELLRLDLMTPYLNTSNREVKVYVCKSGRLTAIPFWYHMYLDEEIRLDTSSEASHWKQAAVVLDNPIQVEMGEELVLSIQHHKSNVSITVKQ

GLP = target: T2, GLP (Homo sapiens, UniProt Q9H9B1); assay: human MTase selectivity panel; format: biochemical
T2 sequence (Q9H9B1 1-1298): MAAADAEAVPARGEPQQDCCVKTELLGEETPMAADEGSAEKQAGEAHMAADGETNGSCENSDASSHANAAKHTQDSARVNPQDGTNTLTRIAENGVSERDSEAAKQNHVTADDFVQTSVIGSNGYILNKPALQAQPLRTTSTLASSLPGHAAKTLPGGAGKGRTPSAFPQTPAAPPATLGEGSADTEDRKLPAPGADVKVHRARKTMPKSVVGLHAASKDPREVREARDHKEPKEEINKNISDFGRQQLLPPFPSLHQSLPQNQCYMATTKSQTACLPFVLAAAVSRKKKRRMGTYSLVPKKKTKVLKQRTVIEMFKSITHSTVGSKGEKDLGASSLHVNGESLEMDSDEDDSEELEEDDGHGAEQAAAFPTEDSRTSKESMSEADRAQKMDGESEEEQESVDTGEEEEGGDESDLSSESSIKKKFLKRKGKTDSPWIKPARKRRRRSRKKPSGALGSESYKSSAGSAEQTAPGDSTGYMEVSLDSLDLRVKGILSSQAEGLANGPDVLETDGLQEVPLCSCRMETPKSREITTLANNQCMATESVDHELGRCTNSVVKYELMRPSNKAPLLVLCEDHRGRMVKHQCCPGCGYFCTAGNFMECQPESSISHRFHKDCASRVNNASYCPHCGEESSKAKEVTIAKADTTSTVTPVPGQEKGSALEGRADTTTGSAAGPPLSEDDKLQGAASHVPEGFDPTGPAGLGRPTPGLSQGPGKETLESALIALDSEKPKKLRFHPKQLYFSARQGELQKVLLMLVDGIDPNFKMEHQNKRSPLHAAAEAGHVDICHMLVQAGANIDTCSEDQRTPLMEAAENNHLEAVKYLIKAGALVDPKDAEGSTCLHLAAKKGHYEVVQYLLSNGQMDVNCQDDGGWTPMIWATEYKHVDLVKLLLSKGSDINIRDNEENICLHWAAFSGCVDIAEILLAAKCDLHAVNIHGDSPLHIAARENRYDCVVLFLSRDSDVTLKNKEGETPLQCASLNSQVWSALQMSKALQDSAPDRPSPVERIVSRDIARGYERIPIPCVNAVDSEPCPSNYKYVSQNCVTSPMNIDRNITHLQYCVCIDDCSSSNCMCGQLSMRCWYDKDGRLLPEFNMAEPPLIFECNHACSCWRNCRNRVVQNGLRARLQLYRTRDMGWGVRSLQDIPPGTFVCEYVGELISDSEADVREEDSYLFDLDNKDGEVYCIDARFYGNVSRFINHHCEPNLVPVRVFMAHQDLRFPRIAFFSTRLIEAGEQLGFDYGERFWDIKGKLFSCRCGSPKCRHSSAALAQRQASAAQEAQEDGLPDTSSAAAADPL

DOT1L = DOT1L (Homo sapiens, UniProt Q8TEK3); assay: human MTase selectivity panel; format: biochemical
[1] = average ± SD, read-out: Activity (%) at 10 µM Average
[2] = read-out: Activity (%) at 10 µM Replicate 1
[3] = read-out: Activity (%) at 10 µM Replicate 2
[4] = read-out: Activity (%) at 10 µM Replicate 3

SUV420H2, sequence (Q86Y97 whole entry): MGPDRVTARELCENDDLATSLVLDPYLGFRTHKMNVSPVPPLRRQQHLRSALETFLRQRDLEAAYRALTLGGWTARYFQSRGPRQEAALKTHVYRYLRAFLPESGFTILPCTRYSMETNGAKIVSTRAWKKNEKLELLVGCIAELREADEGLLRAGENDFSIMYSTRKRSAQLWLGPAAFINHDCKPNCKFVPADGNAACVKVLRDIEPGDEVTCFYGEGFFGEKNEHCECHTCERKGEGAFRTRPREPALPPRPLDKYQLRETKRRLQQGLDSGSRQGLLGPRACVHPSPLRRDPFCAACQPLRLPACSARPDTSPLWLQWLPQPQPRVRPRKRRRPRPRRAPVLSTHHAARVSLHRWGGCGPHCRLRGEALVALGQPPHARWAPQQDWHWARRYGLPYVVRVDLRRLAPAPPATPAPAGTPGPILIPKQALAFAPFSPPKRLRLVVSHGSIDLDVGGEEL
PRMT8, sequence (Q9NR22 whole entry): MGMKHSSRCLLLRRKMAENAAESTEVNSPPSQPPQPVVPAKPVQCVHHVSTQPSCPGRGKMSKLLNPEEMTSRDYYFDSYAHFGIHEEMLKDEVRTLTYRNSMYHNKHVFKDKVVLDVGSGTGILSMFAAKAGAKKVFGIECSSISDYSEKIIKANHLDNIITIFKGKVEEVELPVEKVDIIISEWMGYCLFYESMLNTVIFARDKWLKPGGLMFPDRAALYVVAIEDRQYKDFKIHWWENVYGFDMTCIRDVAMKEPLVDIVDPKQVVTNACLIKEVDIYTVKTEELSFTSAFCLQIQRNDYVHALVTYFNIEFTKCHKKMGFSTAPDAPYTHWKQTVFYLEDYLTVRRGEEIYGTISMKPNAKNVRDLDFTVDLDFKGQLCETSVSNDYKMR
DOT1L, sequence (Q8TEK3 whole entry): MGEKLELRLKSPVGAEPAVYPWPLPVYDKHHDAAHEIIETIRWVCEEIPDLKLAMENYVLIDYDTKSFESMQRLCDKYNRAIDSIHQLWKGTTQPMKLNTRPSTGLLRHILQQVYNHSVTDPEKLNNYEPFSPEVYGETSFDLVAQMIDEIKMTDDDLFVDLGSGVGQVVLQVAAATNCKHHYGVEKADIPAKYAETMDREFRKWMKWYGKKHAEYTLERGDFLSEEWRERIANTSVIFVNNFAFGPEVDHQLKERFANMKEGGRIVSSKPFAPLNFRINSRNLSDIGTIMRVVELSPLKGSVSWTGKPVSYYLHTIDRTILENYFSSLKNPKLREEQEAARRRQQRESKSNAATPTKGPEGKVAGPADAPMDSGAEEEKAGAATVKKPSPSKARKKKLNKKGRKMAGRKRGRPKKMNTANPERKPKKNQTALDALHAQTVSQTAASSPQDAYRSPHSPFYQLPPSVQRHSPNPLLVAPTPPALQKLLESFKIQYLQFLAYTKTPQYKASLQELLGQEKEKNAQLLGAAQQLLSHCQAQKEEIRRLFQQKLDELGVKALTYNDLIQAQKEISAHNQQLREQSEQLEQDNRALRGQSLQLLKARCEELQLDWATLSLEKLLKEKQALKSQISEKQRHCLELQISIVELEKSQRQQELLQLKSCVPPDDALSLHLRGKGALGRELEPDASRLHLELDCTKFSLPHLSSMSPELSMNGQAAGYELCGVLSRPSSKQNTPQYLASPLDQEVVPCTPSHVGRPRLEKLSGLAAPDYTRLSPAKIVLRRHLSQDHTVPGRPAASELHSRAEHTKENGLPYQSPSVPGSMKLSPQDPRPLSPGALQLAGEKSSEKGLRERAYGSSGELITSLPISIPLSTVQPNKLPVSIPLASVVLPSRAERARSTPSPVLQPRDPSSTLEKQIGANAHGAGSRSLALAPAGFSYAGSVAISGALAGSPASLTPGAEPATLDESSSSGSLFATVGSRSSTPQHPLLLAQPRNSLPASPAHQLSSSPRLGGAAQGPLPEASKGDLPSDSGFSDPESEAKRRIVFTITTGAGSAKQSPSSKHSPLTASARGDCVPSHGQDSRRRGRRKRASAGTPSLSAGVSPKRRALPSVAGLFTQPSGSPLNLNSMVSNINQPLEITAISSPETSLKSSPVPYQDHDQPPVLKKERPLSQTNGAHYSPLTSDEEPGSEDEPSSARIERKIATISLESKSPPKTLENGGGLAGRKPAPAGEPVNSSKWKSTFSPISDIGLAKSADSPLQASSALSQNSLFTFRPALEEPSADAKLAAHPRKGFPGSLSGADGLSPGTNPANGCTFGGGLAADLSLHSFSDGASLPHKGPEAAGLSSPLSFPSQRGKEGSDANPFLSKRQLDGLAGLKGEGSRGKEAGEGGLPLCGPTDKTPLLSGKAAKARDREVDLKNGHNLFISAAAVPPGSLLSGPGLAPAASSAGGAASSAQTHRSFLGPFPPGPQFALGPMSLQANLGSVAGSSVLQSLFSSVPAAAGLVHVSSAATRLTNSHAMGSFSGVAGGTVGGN

Nc1ncnc2c1ncn2[C@@H]1O[C@H](CSCc2ccc(Cl)cc2)[C@@H](O)[C@H]1O [NSC620333]
activity at 10 µM (MLL3; [1]): 51 ± 6%
activity at 10 µM (MLL3; [2]): 44%
activity at 10 µM (MLL3; [3]): 57%
activity at 10 µM (MLL3; [4]): 53%
activity at 10 µM (PRMT8; [1]): 96 ± 3%
activity at 10 µM (PRMT8; [2]): 97%
activity at 10 µM (PRMT8; [3]): 99%
activity at 10 µM (PRMT8; [4]): 93%
activity at 10 µM (SUV420H2; [1]): 96 ± 9%
activity at 10 µM (SUV420H2; [2]): 96%
activity at 10 µM (SUV420H2; [3]): 104%
activity at 10 µM (SUV420H2; [4]): 86%
anti-SARS-CoV-2 activity (SARS-CoV-2): demonstrated anti-SARS-CoV-2 activity
activity at 10 µM (PRMT9; [1]): 117 ± 3%
activity at 10 µM (PRMT9; [2]): 118%
activity at 10 µM (PRMT9; [3]): 118%
activity at 10 µM (PRMT9; [4]): 113%
activity at 10 µM (GLP; [1]): 100 ± 5%
activity at 10 µM (GLP; [2]): 95%
activity at 10 µM (GLP; [3]): 105%
activity at 10 µM (GLP; [4]): 101%
activity at 10 µM (DOT1L; [1]): 93 ± 9%
activity at 10 µM (DOT1L; [2]): 103%
activity at 10 µM (DOT1L; [3]): 90%
activity at 10 µM (DOT1L; [4]): 86%

From publication doi:10.1101/2023.10.03.560722, “Drug Discovery in Low Data Regimes: Leveraging a Computational Pipeline for the Discovery of Novel SARS-CoV-2 Nsp14-MTase Inhibitors” (bioRxiv, 2024)
